Like-named read-outs stand apart in the source and are kept apart here.
Key:
[1] = Determination of log P values by HPLC on reversed-phase column (formic acid method); type: physicochemical; details: reversed-phase C 18, acidic range (pH 3.4), formic acid eluents, 55° C., read-out: logP (HCOOH)
In short: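 Reversed-phase C18 HPLC per EEC Directive 79/831 Annex V.A8, pH 3.4, acetonitrile/water with formic acid, gradient 10% to 95% acetonitrile in 4.25 min. log P obtained from retention times by linear interpolation between successive unbranched alkan-2-ones (C3–C16) of known log P.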

[2] = test system: green peach aphid (Myzus persicae); assay: Myzus test; type: in vivo; details: read-out: efficacy (aphids killed)
In short: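 Active ingredient formulated in acetone/dimethylformamide with alkylaryl polyglycol ether emulsifier, diluted in emulsifier-containing water. Sprayed onto Chinese cabbage leaf discs carrying all aphid stages; % efficacy scored after set time (100% = all aphids dead).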

[3] = reversed-phase HPLC column (C 18), pH 3.4, HPLC
[4] = application rate 500 g/ha, spray on Chinese cabbage leaf slices

Row | Structure (SMILES) | chromatographic logP [1, 3] | pest or weed control at 500 g/ha [2, 4] [%] | chromatographic logP ([1]; HPLC) | pest or weed control at 500 g/ha ([2]; in Brassica rapa) [%]
1 | COC1(NC(=O)c2sc(-c3cccnc3)nc2C)CC1 [Compound 129] | 1.23 | ≥ 70 | – | –
2 | Cc1nc(-c2cccnc2)sc1C(=O)NCc1nccs1 [Compound 130] | 1.38 | ≥ 70 | – | –
3 | Cc1nc(-c2cccnc2)sc1C(=O)N(Cc1ccco1)CC(F)(F)F [Compound 131] | 2.56 | ≥ 70 | – | –
4 | Cc1nc(-c2cccnc2)sc1C(=O)NCC1OCC(CCl)O1 (centres unmarked) [Compound 132] | 1.51 | ≥ 70 | – | –
5 | Cc1nc(-c2cccnc2)sc1C(=O)N(C)CC(=O)N(C)C [Compound 133] | 0.8 | ≥ 70 | – | –
6 | CN(Cc1ccccn1)C(=O)c1cnc(-c2cccnc2)s1 [Compound 134] | 0.41 | ≥ 70 | – | –
7 | Cc1nc(-c2cccnc2)sc1C(=O)NCc1cccnc1 [Compound 135] | 0.46 | ≥ 70 | – | –
8 | CN(CCF)C(=O)c1cnc(-c2cccnc2)s1 [Compound 136] | 1.17 | ≥ 70 | – | –
9 | CCN(CC#N)C(=O)c1cnc(-c2cccnc2)s1 [Compound 137] | 1.28 | ≥ 70 | – | –
10 | COC(=O)C[n+]1cccc(-c2nc(C)c(C(=O)NCC(F)(F)F)s2)c1 [Compound 138] | 1.09 | ≥ 70 | – | –
11 | CC#CCN(CC(F)(F)F)C(=O)c1sc(-c2cccnc2)nc1C [Compound 139] | 2.47 | ≥ 70 | – | –
12 | Cc1nc(-c2cccnc2)sc1C(=O)N(CC#N)C(=O)C1(F)CC1 [Compound 140] | 1.93 | ≥ 70 | – | –
13 | CCOC(=O)C(CC)N(C)C(=O)c1sc(-c2cccnc2)nc1C (centres unmarked) [Compound 141] | 2.1 | ≥ 70 | – | –
14 | Cc1nc(-c2cccnc2)sc1C(=O)N(CC#N)C(C)C [Compound 142] | 1.56 | ≥ 70 | – | –
15 | CON(C)C(=O)c1sc(-c2cccnc2)nc1C [Compound 143] | 1.42 | ≥ 70 | – | –
16 | CCOC1(NC(=O)c2sc(-c3cccnc3)nc2C)CC1 [Compound 144] | 1.45 | ≥ 70 | – | –
17 | Cc1nc(-c2cccnc2)sc1C(=O)NCc1cc(C)n(C)n1 [Compound 145] | 1.38 | ≥ 70 | – | –
18 | Cc1nc(-c2cccnc2)sc1C(=O)NC(C(C)C)C(F)(F)F (centres unmarked) [Compound 146] | 2.48 | ≥ 70 | – | –
19 | Cc1nc(-c2cccnc2)sc1C(=O)NCc1ncc(Cl)cn1 [Compound 147] | 1.45 | ≥ 70 | – | –
20 | CSCCN(C)C(=O)c1cnc(-c2cccnc2)s1 [Compound 148] | 1.38 | ≥ 70 | – | –
21 | Cc1nc(-c2cccnc2)sc1C(=O)NC1CCCC(C(F)(F)F)C1 (centres unmarked) [Compound 149] | 2.48 | ≥ 70 | – | –
22 | Cc1nc(-c2cccnc2)sc1C(=O)NCCC#N [Compound 150] | 1.19 | ≥ 70 | – | –
23 | Cc1nc(-c2cccnc2)sc1C(=O)NC(C)c1nn(C)c(=O)n1C (centres unmarked) [Compound 151] | 1.01 | ≥ 70 | – | –
24 | Cc1nc(-c2cccnc2)sc1C(=O)NC1CC(C(F)(F)F)CC(C(F)(F)F)C1 (centres unmarked) [Compound 152] | 2.95 | ≥ 70 | – | –
25 | Cc1nc(-c2cccnc2)sc1C(=O)NCC1CCCCC1 [Compound 153] | 2.43 | ≥ 70 | – | –
26 | CC(c1ccccn1)N(C)C(=O)c1cnc(-c2cccnc2)s1 (centres unmarked) [Compound 154] | 1.21 | ≥ 70 | – | –
27 | Cc1nc(-c2cccnc2)sc1C(=O)NCC1COC(C)(C)O1 (centres unmarked) [Compound 155] | 1.48 | ≥ 70 | – | –
28 | C#CC(C)(C)NC(=O)c1sc(-c2cccnc2)nc1C [Compound 156] | 1.66 | ≥ 70 | – | –

Row | Structure (SMILES) | chromatographic logP [1, 3] | pest or weed control at 500 g/ha [2, 4] [%] | chromatographic logP ([1]; HPLC) | pest or weed control at 500 g/ha ([2]; in Brassica rapa) [%]
29 | Cc1nc(-c2cccnc2)sc1C(=O)NC(C)(C#N)C1CCCO1 (centres unmarked) [Compound 157] | 1.69 | ≥ 70 | – | –
30 | C#CC(C)ONC(=O)c1sc(-c2cccnc2)nc1C (centres unmarked) [Compound 158] | 1.48 | ≥ 70 | – | –
31 | Cc1nc(-c2cccnc2)sc1C(=O)N(C)CC1COCCO1 (centres unmarked) [Compound 159] | 1.26 | ≥ 70 | – | –
32 | Cc1nc(-c2cccnc2)sc1C(=O)NCC1(C)CCCO1 (centres unmarked) [Compound 160] | 1.27 | ≥ 70 | – | –
33 | Cc1cc(CN(C)C(=O)c2cnc(-c3cccnc3)s2)nn1C [Compound 161] | 1.26 | ≥ 70 | – | –
34 | Cc1nc(-c2cccnc2)sc1C(=O)N(C)CC(=O)OC(C)C [Compound 162] | 1.78 | ≥ 70 | – | –
35 | Cc1nc(-c2cccnc2)sc1C(=O)N(C)CCC#N [Compound 163] | 1.1 | ≥ 70 | – | –
36 | Cc1cc(CN(C)C(=O)c2sc(-c3cccnc3)nc2C)no1 [Compound 164] | 1.52 | ≥ 70 | – | –
37 | Cc1nc(C)n(C(C)CNC(=O)c2sc(-c3cccnc3)nc2C)n1 (centres unmarked) [Compound 165] | 1.06 | ≥ 70 | – | –
38 | Cc1nc(CN(C)C(=O)c2cnc(-c3cccnc3)s2)c(C)o1 [Compound 166] | 1.44 | ≥ 70 | – | –
39 | Cc1nc(-c2cccnc2)sc1C(=O)NC1(c2ccccn2)CC1 [Compound 167] | 0.97 | ≥ 70 | – | –
40 | Cc1nc(-c2cccnc2)sc1C(=O)NC(C)C(F)(F)F (centres unmarked) [Compound 168] | 1.89 | ≥ 70 | – | –
41 | Cc1nc(-c2cccnc2)sc1C(=O)NCc1ccncc1 [Compound 169] | 0.69 | ≥ 70 | – | –
42 | Cc1nc(-c2cccnc2)sc1C(=O)N(C)CC1CC1 [Compound 170] | 1.68 | ≥ 70 | – | –
43 | O=C(NC(C(F)(F)F)C(F)(F)F)c1cnc(-c2cccnc2)s1 [Compound 171] | 2.3 | ≥ 70 | – | –
44 | Cc1nc(-c2cccnc2)sc1C(=O)NCc1nc(C2CC2)no1 [Compound 172] | 1.63 | ≥ 70 | – | –
45 | CCON(C)C(=O)c1cnc(-c2cccnc2)s1 [Compound 173] | 1.5 | ≥ 70 | – | –
46 | COC(C)(CNC(=O)c1sc(-c2cccnc2)nc1C)OC [Compound 174] | 1.44 | ≥ 70 | – | –
47 | CC(=O)CNC(=O)c1sc(-c2cccnc2)nc1C [Compound 175] | 1.02 | ≥ 70 | – | –
48 | CCc1nccc(CNC(=O)c2cnc(-c3cccnc3)s2)n1 [Compound 176] | 1.19 | ≥ 70 | – | –
49 | Cc1nc(-c2cccnc2)sc1C(=O)NCCCl [Compound 177] | – | – | 1.41 | ≥ 70
50 | CCOC(=O)CN(OC)C(=O)c1cnc(-c2cccnc2)s1 [Compound 178] | 1.65 | ≥ 70 | – | –
51 | O=C(NCc1cccc(Br)n1)c1cnc(-c2cccnc2)s1 [Compound 179] | 1.68 | ≥ 70 | – | –
52 | CN(CC1CCCO1)C(=O)c1cnc(-c2cccnc2)s1 (centres unmarked) [Compound 180] | 1.33 | ≥ 70 | – | –
53 | CCCC(NC(=O)c1sc(-c2cccnc2)nc1C)C(F)(F)F (centres unmarked) [Compound 181] | 2.58 | ≥ 70 | – | –
54 | Cc1nc(-c2cccnc2)sc1C(=O)NC(C)(C)C(F)(F)F [Compound 182] | 2.24 | ≥ 70 | – | –
55 | CCN(OC)C(=O)c1cnc(-c2cccnc2)s1 [Compound 183] | 1.53 | ≥ 70 | – | –

From US9428487B2, “Heteroaromatic amides and thioamides as pesticides” (Bayer Intellectual Property GmbH, priority 2008, dated 2016)
